Laboratory results published in US11542240B2, “STK19 inhibitors for treatment of cancer” (TRUSTEES OF BOSTON UNIVERSITY, priority 2018, dated 2023).
Read-outs that look alike come from different tables or passages of the source.

Columns and labels:
Experiment in all cases: biochemical
Assay type in all cases: binding
[1] = target: panel of 468 diverse kinases (Homo sapiens, UniProt P54753); conditions: EPHB3; 1000 nM; read-out: Percent Control
[2] = target: panel of 468 diverse kinases (Homo sapiens, UniProt O96013); conditions: PAK4; 1000 nM; read-out: Percent Control
[3] = target: panel of 468 diverse kinases (Homo sapiens, UniProt Q8TDC3); conditions: BRSK1; 1000 nM; read-out: Percent Control
[4] = target: panel of 468 diverse kinases (Homo sapiens, UniProt Q13043); conditions: MST1; 1000 nM; read-out: Percent Control
[5] = target: panel of 468 diverse kinases (Homo sapiens, UniProt O15264); conditions: p38-delta; 1000 nM; read-out: Percent Control
[6] = target: panel of 468 diverse kinases (Homo sapiens, UniProt Q96SB4); conditions: SRPK1; 1000 nM; read-out: Percent Control
[7] = target: panel of 468 diverse kinases (Homo sapiens, UniProt P16591); conditions: FER; 1000 nM; read-out: Percent Control
[8] = target: panel of 468 diverse kinases (Homo sapiens, UniProt Q92630); conditions: DYRK2; 1000 nM; read-out: Percent Control
[9] = target: panel of 468 diverse kinases (Homo sapiens, UniProt Q9H422); conditions: HIPK3; 1000 nM; read-out: Percent Control
[10] = target: panel of 468 diverse kinases (Homo sapiens, UniProt Q14004); conditions: read-out: Percent Control
[11] = target: panel of 468 diverse kinases (Homo sapiens, UniProt Q9UL54); conditions: TAOK2; 1000 nM; read-out: Percent Control
[12] = target: panel of 468 diverse kinases (Homo sapiens, UniProt P00519); conditions: 1000 nM, read-out: Percent Control
[13] = target: panel of 468 diverse kinases (Homo sapiens, UniProt P49760); conditions: CLK2; 1000 nM; read-out: Percent Control
[14] = target: panel of 468 diverse kinases (Homo sapiens, UniProt P15735); conditions: PHKG2; 1000 nM; read-out: Percent Control
[15] = target: panel of 468 diverse kinases (Homo sapiens, UniProt Q9BUB5); conditions: MKNK1; 1000 nM; read-out: Percent Control
[16] = target: panel of 468 diverse kinases (Homo sapiens, UniProt P09619); conditions: PDGFRB; 1000 nM; read-out: Percent Control
[17] = target: panel of 468 diverse kinases (Homo sapiens, UniProt Q16620); conditions: TRKB; 1000 nM; read-out: Percent Control
[18] = target: panel of 468 diverse kinases (Homo sapiens, UniProt P57058); conditions: HUNK; 1000 nM; read-out: Percent Control
[19] = target: panel of 468 diverse kinases (Homo sapiens, UniProt Q96L34); conditions: MARK4; 1000 nM; read-out: Percent Control
[20] = target: panel of 468 diverse kinases (Homo sapiens, UniProt Q15349); conditions: 1000 nM, read-out: Percent Control
[21] = target: panel of 468 diverse kinases (Homo sapiens, UniProt Q02763); conditions: TIE2; 1000 nM; read-out: Percent Control
[22] = target: panel of 468 diverse kinases (Homo sapiens, UniProt Q13177); conditions: PAK2; 1000 nM; read-out: Percent Control
[23] = target: panel of 468 diverse kinases (Homo sapiens, UniProt P07947); conditions: YES; 1000 nM; read-out: Percent Control
[24] = target: panel of 468 diverse kinases (Homo sapiens, UniProt Q15418); conditions: 1000 nM, read-out: Percent Control
[25] = target: panel of 468 diverse kinases (Homo sapiens, UniProt Q16566); conditions: CAMK4; 1000 nM; read-out: Percent Control
[26] = target: panel of 468 diverse kinases (Homo sapiens, UniProt P42336, M1043I); conditions: PIK3CA(M1043I); 1000 nM; read-out: Percent Control
[27] = target: panel of 468 diverse kinases (Homo sapiens, UniProt P68400); conditions: CSNK2A1; 1000 nM; read-out: Percent Control
[28] = target: panel of 468 diverse kinases (Homo sapiens, UniProt Q16539); conditions: p38-alpha; 1000 nM; read-out: Percent Control
[29] = target: panel of 468 diverse kinases (Homo sapiens, UniProt P42336, Q546K); conditions: PIK3CA(Q546K); 1000 nM; read-out: Percent Control
[30] = target: panel of 468 diverse kinases (Homo sapiens, UniProt P00533, T790M); conditions: EGFR(T790M); 1000 nM; read-out: Percent Control
Sequence of panel of 468 diverse kinases (Homo sapiens, UniProt P00533, T790M) (P00533 25-1210 T790M limits assumed): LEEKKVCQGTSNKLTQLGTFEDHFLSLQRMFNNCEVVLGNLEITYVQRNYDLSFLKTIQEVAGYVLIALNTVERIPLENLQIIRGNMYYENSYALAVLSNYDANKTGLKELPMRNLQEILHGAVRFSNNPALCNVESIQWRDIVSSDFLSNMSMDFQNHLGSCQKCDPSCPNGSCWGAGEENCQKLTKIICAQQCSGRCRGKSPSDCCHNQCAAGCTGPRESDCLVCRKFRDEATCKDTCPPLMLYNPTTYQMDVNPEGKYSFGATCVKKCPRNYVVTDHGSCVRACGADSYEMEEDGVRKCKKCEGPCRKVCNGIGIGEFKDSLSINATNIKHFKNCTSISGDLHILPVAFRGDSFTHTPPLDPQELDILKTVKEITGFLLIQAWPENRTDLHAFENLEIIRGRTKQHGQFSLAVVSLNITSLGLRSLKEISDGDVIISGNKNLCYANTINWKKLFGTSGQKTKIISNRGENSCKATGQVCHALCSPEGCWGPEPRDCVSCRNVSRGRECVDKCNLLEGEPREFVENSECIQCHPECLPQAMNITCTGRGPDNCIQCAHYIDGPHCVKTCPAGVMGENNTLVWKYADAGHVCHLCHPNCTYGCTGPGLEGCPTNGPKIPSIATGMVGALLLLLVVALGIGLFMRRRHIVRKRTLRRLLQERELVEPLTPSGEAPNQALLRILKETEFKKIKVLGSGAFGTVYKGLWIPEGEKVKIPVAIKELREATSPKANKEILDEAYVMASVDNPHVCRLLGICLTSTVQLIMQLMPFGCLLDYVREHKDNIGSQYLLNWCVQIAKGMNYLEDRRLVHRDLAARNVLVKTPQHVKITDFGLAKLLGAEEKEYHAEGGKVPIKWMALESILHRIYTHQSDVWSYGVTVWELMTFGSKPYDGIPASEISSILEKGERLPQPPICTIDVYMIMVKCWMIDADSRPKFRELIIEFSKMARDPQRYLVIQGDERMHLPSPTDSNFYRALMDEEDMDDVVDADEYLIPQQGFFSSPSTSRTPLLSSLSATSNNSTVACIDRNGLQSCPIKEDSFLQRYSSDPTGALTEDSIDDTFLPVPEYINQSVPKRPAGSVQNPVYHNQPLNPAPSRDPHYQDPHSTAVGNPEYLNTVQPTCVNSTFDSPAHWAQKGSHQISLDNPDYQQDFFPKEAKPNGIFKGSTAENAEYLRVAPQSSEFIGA

Sequence of panel of 468 diverse kinases (Homo sapiens, UniProt Q13177) (Q13177 2-524 limits assumed): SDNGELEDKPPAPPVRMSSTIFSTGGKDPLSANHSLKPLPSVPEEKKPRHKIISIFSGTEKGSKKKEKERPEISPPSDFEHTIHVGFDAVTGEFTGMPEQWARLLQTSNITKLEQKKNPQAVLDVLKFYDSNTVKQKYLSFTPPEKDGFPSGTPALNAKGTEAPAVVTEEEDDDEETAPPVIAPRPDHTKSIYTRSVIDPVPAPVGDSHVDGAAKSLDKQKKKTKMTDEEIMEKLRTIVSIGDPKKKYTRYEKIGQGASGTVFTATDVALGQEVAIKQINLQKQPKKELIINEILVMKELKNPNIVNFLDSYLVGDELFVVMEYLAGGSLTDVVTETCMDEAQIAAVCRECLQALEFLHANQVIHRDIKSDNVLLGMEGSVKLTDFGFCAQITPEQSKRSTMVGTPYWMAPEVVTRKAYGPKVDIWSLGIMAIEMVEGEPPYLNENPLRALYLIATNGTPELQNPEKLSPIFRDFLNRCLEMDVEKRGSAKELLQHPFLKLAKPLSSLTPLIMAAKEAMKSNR
Sequence of panel of 468 diverse kinases (Homo sapiens, UniProt Q02763) (Q02763 23-1124 limits assumed): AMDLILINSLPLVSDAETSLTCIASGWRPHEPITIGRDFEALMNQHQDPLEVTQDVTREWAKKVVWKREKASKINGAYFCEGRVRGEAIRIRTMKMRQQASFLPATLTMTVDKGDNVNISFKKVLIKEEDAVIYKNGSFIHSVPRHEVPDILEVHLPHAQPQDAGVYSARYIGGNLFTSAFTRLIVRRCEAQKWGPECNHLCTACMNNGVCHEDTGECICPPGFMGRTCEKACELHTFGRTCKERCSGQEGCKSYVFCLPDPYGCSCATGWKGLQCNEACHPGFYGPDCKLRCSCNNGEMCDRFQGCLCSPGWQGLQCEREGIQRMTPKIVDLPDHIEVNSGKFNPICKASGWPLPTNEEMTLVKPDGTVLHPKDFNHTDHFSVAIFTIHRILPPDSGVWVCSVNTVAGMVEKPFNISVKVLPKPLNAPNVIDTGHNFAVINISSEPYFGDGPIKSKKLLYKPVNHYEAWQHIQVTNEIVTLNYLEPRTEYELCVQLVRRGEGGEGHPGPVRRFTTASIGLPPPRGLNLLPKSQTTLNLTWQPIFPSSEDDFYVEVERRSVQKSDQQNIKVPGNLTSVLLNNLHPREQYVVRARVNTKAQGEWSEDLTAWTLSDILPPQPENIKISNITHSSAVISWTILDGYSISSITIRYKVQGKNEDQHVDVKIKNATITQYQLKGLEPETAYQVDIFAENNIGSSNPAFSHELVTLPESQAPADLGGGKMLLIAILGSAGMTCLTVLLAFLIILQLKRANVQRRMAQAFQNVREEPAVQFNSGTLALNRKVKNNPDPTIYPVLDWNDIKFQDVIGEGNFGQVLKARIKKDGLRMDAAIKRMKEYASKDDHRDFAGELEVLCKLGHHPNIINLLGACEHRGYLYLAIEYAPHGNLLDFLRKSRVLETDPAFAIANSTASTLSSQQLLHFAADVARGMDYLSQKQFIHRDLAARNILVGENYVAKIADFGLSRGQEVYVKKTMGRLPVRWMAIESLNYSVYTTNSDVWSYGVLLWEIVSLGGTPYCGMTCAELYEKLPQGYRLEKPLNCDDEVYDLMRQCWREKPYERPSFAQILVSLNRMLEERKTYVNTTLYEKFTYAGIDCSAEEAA
Sequence of panel of 468 diverse kinases (Homo sapiens, UniProt P54753) (P54753 34-998 limits assumed): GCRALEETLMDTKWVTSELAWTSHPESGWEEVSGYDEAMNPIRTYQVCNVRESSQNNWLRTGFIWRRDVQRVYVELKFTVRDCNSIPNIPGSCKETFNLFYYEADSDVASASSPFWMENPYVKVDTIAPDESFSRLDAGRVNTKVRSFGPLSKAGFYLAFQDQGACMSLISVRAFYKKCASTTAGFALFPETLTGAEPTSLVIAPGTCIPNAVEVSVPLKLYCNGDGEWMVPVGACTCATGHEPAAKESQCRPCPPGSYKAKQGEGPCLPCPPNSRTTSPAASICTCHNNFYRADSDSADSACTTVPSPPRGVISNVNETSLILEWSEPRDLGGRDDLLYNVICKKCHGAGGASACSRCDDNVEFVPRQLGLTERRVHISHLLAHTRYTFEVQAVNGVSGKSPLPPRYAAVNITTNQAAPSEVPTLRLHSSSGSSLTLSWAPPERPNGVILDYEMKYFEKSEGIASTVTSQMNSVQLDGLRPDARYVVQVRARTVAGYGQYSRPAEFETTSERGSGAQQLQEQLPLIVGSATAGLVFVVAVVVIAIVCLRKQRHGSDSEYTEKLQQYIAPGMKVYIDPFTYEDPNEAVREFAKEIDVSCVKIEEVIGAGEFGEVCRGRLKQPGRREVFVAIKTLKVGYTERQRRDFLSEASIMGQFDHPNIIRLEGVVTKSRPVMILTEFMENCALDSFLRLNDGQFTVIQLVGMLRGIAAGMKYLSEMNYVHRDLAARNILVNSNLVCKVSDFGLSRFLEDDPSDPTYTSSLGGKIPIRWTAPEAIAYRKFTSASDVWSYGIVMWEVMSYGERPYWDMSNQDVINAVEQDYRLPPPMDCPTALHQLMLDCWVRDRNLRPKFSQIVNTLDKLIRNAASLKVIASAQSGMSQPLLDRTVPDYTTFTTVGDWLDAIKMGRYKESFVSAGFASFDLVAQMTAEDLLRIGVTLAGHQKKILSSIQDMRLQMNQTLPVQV
Sequence of panel of 468 diverse kinases (Homo sapiens, UniProt P09619) (P09619 33-1106 limits assumed): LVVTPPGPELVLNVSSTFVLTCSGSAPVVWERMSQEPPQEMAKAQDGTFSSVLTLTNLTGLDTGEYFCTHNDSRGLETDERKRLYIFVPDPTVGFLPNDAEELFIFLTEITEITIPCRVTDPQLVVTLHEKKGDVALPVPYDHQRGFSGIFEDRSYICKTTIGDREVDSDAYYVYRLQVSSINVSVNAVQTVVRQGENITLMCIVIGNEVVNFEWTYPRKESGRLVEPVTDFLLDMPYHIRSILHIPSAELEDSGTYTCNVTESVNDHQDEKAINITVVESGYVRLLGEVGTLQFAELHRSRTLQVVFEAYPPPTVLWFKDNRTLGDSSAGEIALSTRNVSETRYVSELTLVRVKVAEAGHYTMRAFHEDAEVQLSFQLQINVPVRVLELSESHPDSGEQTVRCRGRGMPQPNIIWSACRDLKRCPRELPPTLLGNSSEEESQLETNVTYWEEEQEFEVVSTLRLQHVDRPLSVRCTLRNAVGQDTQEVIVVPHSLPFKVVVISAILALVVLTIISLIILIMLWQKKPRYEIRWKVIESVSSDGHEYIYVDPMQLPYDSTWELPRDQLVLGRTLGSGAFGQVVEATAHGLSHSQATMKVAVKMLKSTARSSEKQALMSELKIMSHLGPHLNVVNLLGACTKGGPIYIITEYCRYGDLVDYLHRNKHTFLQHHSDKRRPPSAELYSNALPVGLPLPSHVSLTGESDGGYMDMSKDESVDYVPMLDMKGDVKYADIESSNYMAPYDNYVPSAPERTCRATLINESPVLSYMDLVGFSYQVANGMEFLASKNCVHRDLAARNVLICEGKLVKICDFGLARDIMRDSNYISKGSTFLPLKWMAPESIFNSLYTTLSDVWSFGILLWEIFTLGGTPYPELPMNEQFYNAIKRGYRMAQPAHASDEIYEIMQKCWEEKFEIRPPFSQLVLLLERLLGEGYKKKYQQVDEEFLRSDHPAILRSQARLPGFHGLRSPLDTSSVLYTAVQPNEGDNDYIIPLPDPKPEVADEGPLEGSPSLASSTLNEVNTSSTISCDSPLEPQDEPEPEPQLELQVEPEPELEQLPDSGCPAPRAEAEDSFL

**Q.** What does the source list for `COc1cc2nc(NC3CC3)nc(NC3CCN(C(C)C)CC3)c2cc1OC` [Formula IV]?
**A.** remaining activity at 1 µM [1]: 100%; remaining activity at 1 µM [2]: 96%; remaining activity at 1 µM [3]: 92%; remaining activity at 1 µM [4]: 84%; remaining activity at 1 µM [5]: 98%; remaining activity at 1 µM [6]: 97%; remaining activity at 1 µM [7]: 90%; remaining activity at 1 µM [8]: 84%; remaining activity at 1 µM [9]: 61%; remaining activity at 1 µM [10]: 55%; remaining activity at 1 µM [11]: 87%; remaining activity at 1 µM ([12]; ABL1-nonphosphorylated): 91%; remaining activity at 1 µM ([12]; ABL1-phosphorylated): 88%; remaining activity at 1 µM [13]: 90%; remaining activity at 1 µM [14]: 83%; remaining activity at 1 µM [15]: 100%; remaining activity at 1 µM [16]: 93%; remaining activity at 1 µM [17]: 48%; remaining activity at 1 µM [18]: 74%; remaining activity at 1 µM [19]: 95%; remaining activity at 1 µM ([20]; RSK3(Kin.Dom.1-N-terminal)): 93%; remaining activity at 1 µM ([20]; RSK3(Kin.Dom.2-C-terminal)): 81%; remaining activity at 1 µM [21]: 100%; remaining activity at 1 µM [22]: 63%; remaining activity at 1 µM [23]: 100%; remaining activity at 1 µM ([24]; RSK1(Kin.Dom.1-N-terminal)): 93%; remaining activity at 1 µM ([24]; RSK1(Kin.Dom.2-C-terminal)): 98%; remaining activity at 1 µM [25]: 98%; remaining activity at 1 µM [26]: 83%; remaining activity at 1 µM [27]: 61%; remaining activity at 1 µM [28]: 100%; remaining activity at 1 µM [29]: 54%; remaining activity at 1 µM [30]: 44%
